{"source": "patent US9549935B2", "about": "“Methods and compositions for treating migraines using noribogaine” (DemeRx, Inc., priority 2014, dated 2017)", "assay": "Plasma noribogaine glucuronide pharmacokinetics after single oral noribogaine doses in healthy volunteers", "format": "in vivo, human", "conditions": "for AUC0-216 of noribogaine glucuronide / AUC0-∞ of noribogaine glucuronide / Cmax of noribogaine glucuronide / Tmax of noribogaine glucuronide / t1/2 of noribogaine glucuronide: healthy volunteers, mean (SD), n = 6", "method": "Blood was obtained for pharmacokinetic assessments pre-dose and then at 0.25, 0.5, 0.75, 1.0, 1.25, 1.5, 2, 2.5, 3, 3.5, 4, 4.5, 5, 5.5, 6, 7, 8, 10, 12, 14, 18, 24, 30, 36, 48, 60, 72, 96, 120, 168 and 216 hours post-dose. Samples were centrifuged and plasma stored at −70° C. until analyzed. Block 24 hour urine collections were obtained following study drug administration for the 30 and 60 mg cohorts. Aliquots were frozen at −20° C. until analyzed.\nPlasma noribogaine glucuronide concentrations were determined in the 30 mg and 60 mg dose groups using a validated sensitive LCMSMS method. Sample preparation involved deproteinization of plasma samples with acetonitrile, drying the samples under a stream of nitrogen and reconstitution of sample with acetonitrile:B.P. water (5:95, v/v) containing 0.1% (v/v) formic acid. The compounds were separated by a 150×2.0 mm Luna 5 μm C18 column and detected with a triple-quadrupole API 4000 or 5000 mass spectrometer using electrospray ionization in positive mode and multiple reaction monitoring. Noribogaine-d4 was used as the internal standard. The precursor-product ion transition values for noribogaine glucuronide were m/z 472.8→297.3, and for the internal standard noribogaine-d4 m/z 301.1→122.2. Analyst® software was used for data acquisition and processing. The ratio of the peak area of noribogaine glucuronide to the internal standard noribogaine-d4 was used for calibration and measurement of the unknown concentration of noribogaine glucuronide. The LLOQ was 0.050 ng/ml noribogaine glucuronide. The calibration curve was between 0.050 and 6.400 ng/ml noribogaine glucuronide. Mobile phases was the same as method A. Binary flow: Initial concentration was 6% mobile phase B; hold at 6% mobile phase B for 0.5 minutes and linear rise to 90% mobile phase B over 2 minutes; hold at 90% mobile phase B for 1 minute and then drop back to 6% mobile phase B over 0.01 minute. Equilibrate system for 3.5 minutes. Total run time was 7 minutes. The within- and between-day assay precision was <11%, and the within- and between-day assay accuracy was <10%.\nNoribogaine and noribogaine glucuronide concentrations above the limit of quantification were used to calculate pharmacokinetic parameters using model-independent methods. The maximum plasma concentration (Cmax) and time to maximum plasma concentration (Tmax) were the observed values. Plasma concentration data in the post-distribution phase of the plasma concentration-time plot were fitted using linear regression to the formula ln C=ln Co−t.Kel, where Co was the zero-time intercept of the extrapolated terminal phase and Kel was the terminal elimination rate constant. […] The area under the concentration-time curve (AUC) from time zero to the last determined concentration-time point (tf) in the post distribution phase was calculated using the trapezoidal rule. The area under the curve from the last concentration-time point in the post distribution phase (Ctf) to time infinity was calculated from AUCt-∞=Ctf/Kel. The concentration used for Ctf was the last determined value above the LLOQ at the time point. The total AUC0-∞ was obtained by adding AUCtf and AUCt-∞. Noribogaine apparent clearance (CL/F) was determined using the formula CL/F=Dose/AUC0-∞×1000, and apparent volume of distribution (Vd/F) was determined using the formula Vd/F=(CL/F)/Kel. Total urine noribogaine was the sum of both analytes.", "key": {"[1]": {"conditions": "30 mg and 60 mg noribogaine dose groups, plasma"}, "[2]": {"conditions": "after single oral 30 mg noribogaine, plasma"}, "[3]": {"conditions": "after single oral 60 mg noribogaine, plasma"}}}
{"smiles": "CC[C@H]1C[C@@H]2C[C@H]3c4[nH]c5ccc(OC6OC(C(=O)O)C(O)C(O)C6O)cc5c4CCN(C2)[C@@H]13", "note": "(some centres unmarked) [Noribogaine glucuronide, noribogaine glucuronide]", "values": [{"measurement": "Mean half-life of plasma noribogaine glucuronide", "setting": "30 mg and 60 mg noribogaine dose groups", "result": "21 to 23", "unit": "h"}, {"measurement": "time by which noribogaine glucuronide was detected in all subjects", "setting": "[1]", "result": "≤ 0.75", "unit": "h"}, {"measurement": "time of peak noribogaine glucuronide concentrations after noribogaine dosing", "setting": "[1]", "result": "3 to 4", "unit": "h"}, {"measurement": "AUC0-216 of noribogaine glucuronide", "setting": "[2]", "result": "25.7 (9.1) ng · hr/ml"}, {"measurement": "AUC0-∞ of noribogaine glucuronide", "setting": "[2]", "result": "25.8 (9.3) ng · hr/ml"}, {"measurement": "Cmax of noribogaine glucuronide", "setting": "[2]", "result": "1.8 (0.6) ng/ml"}, {"measurement": "Tmax of noribogaine glucuronide", "setting": "[2]", "result": "3.0 (0.6) hr"}, {"measurement": "t1/2 of noribogaine glucuronide", "setting": "[2]", "result": "20.6 (4.9) hr"}, {"measurement": "AUC0-216 of noribogaine glucuronide", "setting": "[3]", "result": "65.0 (21.5) ng · hr/ml"}, {"measurement": "AUC0-∞ of noribogaine glucuronide", "setting": "[3]", "result": "67.1 (21.9) ng · hr/ml"}, {"measurement": "Cmax of noribogaine glucuronide", "setting": "[3]", "result": "4.1 (1.2) ng/ml"}, {"measurement": "Tmax of noribogaine glucuronide", "setting": "[3]", "result": "3.8 (1.2) hr"}, {"measurement": "t1/2 of noribogaine glucuronide", "setting": "[3]", "result": "23.1 (3.0) hr"}, {"measurement": "proportion of noribogaine glucuronide Cmax and AUC relative to noribogaine", "setting": "both dose groups (30 mg and 60 mg)", "result": "3-4%"}]}
